In PubChem BioAssay (NCI):
Values joined by “and” are separate entries in the source; they are usually repeats but may differ in a detail not shown here. Equal entries are not always repeated.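 Values below derive from 48-hour exposures of cells grown in 96-well plates, with endpoints linearly interpolated between the two concentrations bracketing the appropriate inhibition level. GI50 = concentration required for 50% inhibition of growth. TGI marks complete inhibition of growth.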

How the values were obtained:
Experiment in all cases: DTP human tumour cell line panel, 48 h
[1] = system: MDA-MB-468 breast
[2] = system: BT-549 breast
[3] = system: MDA-MB-231 breast
[4] = system: MALME-3M melanoma
[5] = system: SK-MEL-5 melanoma
[6] = system: NCI-H460 lung
[7] = system: SK-MEL-2 melanoma
[8] = system: A498 renal
[9] = system: T-47D breast
[10] = system: UACC-257 melanoma
[11] = system: MOLT-4 leukemia
[12] = system: RXF 393 renal
[13] = system: UO-31 renal
[14] = system: SK-OV-3 ovarian
[15] = system: U251 CNS
[16] = system: OVCAR-3 ovarian
[17] = system: K-562 leukemia
[18] = system: A549 NSCLC
[19] = system: EKVX NSCLC
[20] = system: SK-MEL-28 melanoma
[21] = system: SF-295 CNS
[22] = system: HL-60(TB) leukemia
[23] = system: SN12C renal
[24] = system: OVCAR-4 ovarian
[25] = system: TK-10 renal
[26] = system: HCT-116 colon
[27] = system: NCI-H23 lung
[28] = system: 786-0 renal
[29] = system: OVCAR-8 ovarian
[30] = system: SW-620 colon
[31] = system: CCRF-CEM leukemia
[32] = system: UACC-62 melanoma
[33] = system: IGROV1 ovarian
[34] = system: HS 578T breast
[35] = system: SF-539 CNS
[36] = system: SR leukemia
[37] = system: MDA-MB-435
[38] = system: HT29 colon
[39] = system: HOP-62 NSCLC
[40] = system: SNB-19 CNS
[41] = system: NCI-H226 lung
[42] = system: COLO 205 colon
[43] = system: DU-145 prostate
[44] = system: M14 melanoma
[45] = system: SF-268 CNS
[46] = system: RPMI-8226 leukemia
[47] = system: HOP-92 NSCLC
[48] = system: KM12 colon
[49] = system: CAKI-1 renal
[50] = system: LOX IMVI melanoma
[51] = system: OVCAR-5 ovarian
[52] = system: HCT-15 colon
[53] = system: HCC-2998 colon
[54] = system: PC-3 prostate
[55] = system: NCI-H522 lung
[56] = system: MCF7 breast
[57] = system: ACHN renal

SMILES: Cn1cnc([N+](=O)[O-])c1Sc1ncn[nH]1
- GI50 [1]: 21 µM
- TGI [1]: > 100 µM

SMILES: COc1cc(/C=C/C(=O)c2cccnc2Nc2ccc(F)cc2)cc(OC)c1OC
- GI50 [1]: 1.77 µM
- TGI [1]: 5.67 µM

SMILES: CC(=O)Oc1ccc(C(c2ccc(OC(C)=O)cc2)c2ccccn2)cc1
- GI50 [1]: 0.458 µM and 1.34 µM
- TGI [1]: 25 µM and 45.2 µM

SMILES: CCCNc1nc2ccccc2c2c1S(=O)(=O)c1ccc(Cl)cc1C2=O
- GI50 [1]: 0.195 µM
- TGI [1]: 1.47 µM

SMILES: COc1ccc(OC)c(Nc2nc(-c3c(C)nc4sccn34)cs2)c1
- GI50 [1]: 1.7 µM
- TGI [1]: 75.3 µM

SMILES: C#Cc1nc(C2=C(C)C(OC(C)=O)/C(=N/OC(C)=O)C2)cs1 (stereo not drawn)
- GI50 [1]: 2.07 µM
- TGI [1]: 8.72 µM

SMILES: CO[C@H]1CC(c2ccc[nH]2)=N[C@]12O[C@@H](C)C[C@@H]1CCCCCCCc3ccc([nH]3)[C@H]12
- GI50 [1]: 0.444 µM
- TGI [1]: 3.62 µM

SMILES: Cn1c(=O)c(Oc2ccc(F)cc2F)cc2cnc(NCCS(C)(=O)=O)nc21
- GI50 [1]: > 25 µM
- TGI [1]: > 25 µM

SMILES: O=C(Nc1ccc(I)cc1F)c1cc(Cl)ccc1O
- GI50 [1]: 0.361 µM
- TGI [1]: 1.73 µM

SMILES: CCn1c2ccccc2c2cc(C(O)c3cccc4ncccc34)ccc21 (stereo not drawn)
- GI50 [1]: 0.0326 µM
- TGI [1]: 0.849 µM

SMILES: COc1ccc2nc(NC(=O)c3cccnc3Nc3cc(OC)c(OC)c(OC)c3)sc2c1
- GI50 [1]: 17.8 µM
- TGI [1]: 62.7 µM

SMILES: COc1ccc(-c2nn(-c3cccc(NC(=O)c4ccc(N5CCOCC5)c(C(F)(F)F)c4)c3)cc2-c2ccncc2)cc1Cl
- GI50 [1]: 6.88 µM
- TGI [1]: > 50 µM

SMILES: C=C1c2c(Cl)ccc(O)c2C(O)=C2C(=O)[C@]3(O)C(O)=C(C(N)=O)C(=O)[C@@H](N(C)C)[C@@H]3[C@@H](O)[C@H]12
- GI50 [1]: 0.846 µM
- TGI [1]: 2.56 µM

SMILES: Oc1ccc(Cl)cc1CNc1nc2ccccc2[nH]1
- GI50 [1]: 5.72 µM
- TGI [1]: 21.9 µM

SMILES: CC(C)COC(=O)c1ccc2[nH]c(O)c(C=Nc3ccc(S(N)(=O)=O)cc3)c2c1
- GI50 [1]: 1.57 µM
- TGI [1]: 4.36 µM

SMILES: O=C1NCCS(=O)(=O)/C1=C\C=C\c1cccc(C(F)(F)F)c1
- GI50 [1]: 1.56 µM
- TGI [1]: 4.53 µM

SMILES: CCN(CC)CCOc1ccc(C(=O)/C=C\c2ccc(Cl)cc2Cl)cc1
- GI50 [1]: 5.05 µM
- TGI [1]: 19 µM

SMILES: O=S(=O)(NCCNc1nccc(-c2c(-c3ccc(F)cc3)nc3sccn23)n1)c1ccccc1
- GI50 [1]: 4.34 µM
- TGI [1]: > 100 µM

SMILES: CC(C)CCN[C@@H]1CCc2cc(O)c(N3CC(=O)NS3(=O)=O)c(F)c2C1
- GI50 [1]: > 100 µM
- TGI [1]: > 100 µM

SMILES: COc1cc(/C=N/NC(=O)c2cn(C3CC3)c3c(OC)c(N4CC5CCCNC5C4)c(F)cc3c2=O)ccc1O (stereo not drawn)
- GI50 [1]: 1.63 µM
- TGI [1]: 3.11 µM

SMILES: Cc1cccc2c(N)c3ccccc3nc12
- GI50 [1]: 1.44 µM
- TGI [1]: 4.63 µM

SMILES: CCN(CC)CCSCCCNc1c2ccc(Cl)cc2nc2ccc(OC)cc12
- GI50 [1]: 1.5 µM
- TGI [1]: 3.05 µM

SMILES: CCOC(=O)/C(C#N)=C/c1ccc2c(c1)CC1(C2)Cc2cc(CC)c(C(C)O)cc2C1 (stereo not drawn)
- GI50 [1]: 12.4 µM
- TGI [1]: 36.8 µM

SMILES: COc1ccc(C2=CC(c3ccc(OC)c(OC)c3)c3c(c4ccccc4oc3=O)O2)cc1OC (stereo not drawn)
- GI50 [1]: 0.475 µM
- TGI [1]: 8.3 µM

SMILES: COc1cc(Cl)cc(-c2nn(-c3cccc(NC(=O)Nc4ccc(Cl)c(C(F)(F)F)c4)c3)cc2-c2ccncc2)c1
- GI50 [1]: 0.99 µM
- TGI [1]: 5.47 µM

SMILES: Cc1nc(Nc2nc3ccccc3o2)nc(-c2cccc([N+](=O)[O-])c2)c1C(=O)Nc1ccc(F)c(Cl)c1
- GI50 [1]: 1.28 µM
- TGI [1]: 6.44 µM

SMILES: c1ccc(CNc2nc(Nc3ccccc3)nc3ccccc23)cc1
- GI50 [1]: 1.09 µM
- TGI [1]: 2.56 µM

SMILES: CN(C)CCN1C(=O)c2cccc3cccc(c23)C1=O
- GI50 [1]: 10.3 µM
- TGI [1]: > 25 µM

SMILES: COc1cc(/C=C/C(=O)c2cnn(-c3cc(=O)[nH]c4ccc(C)cc34)c2C)cc(OC)c1OC
- GI50 [2]: 2.43 µM
- TGI [2]: 8.55 µM
- GI50 [3]: 3.1 µM
- TGI [3]: 11.9 µM
- GI50 [4]: 3.89 µM
- TGI [4]: 16.7 µM
- GI50 [5]: 2.39 µM
- TGI [5]: 7.34 µM
- GI50 [6]: 1.86 µM
- TGI [6]: 4.38 µM
- GI50 [7]: 2.9 µM
- TGI [7]: 11 µM
- GI50 [8]: 18 µM
- TGI [8]: 35.9 µM
- GI50 [9]: 2.57 µM
- TGI [9]: 16.2 µM
- GI50 [10]: 4.85 µM
- TGI [10]: 20.4 µM
- GI50 [11]: 2.53 µM
- TGI [11]: 10.4 µM
- GI50 [12]: 2.09 µM
- TGI [12]: 5.13 µM
- GI50 [13]: 2.98 µM
- TGI [13]: 13.1 µM
- GI50 [14]: 3.91 µM
- TGI [14]: 13.4 µM
- GI50 [15]: 2.42 µM
- TGI [15]: 8.48 µM
- GI50 [16]: 2.79 µM
- TGI [16]: 7.95 µM
- GI50 [17]: 2.24 µM
- TGI [17]: > 100 µM
- GI50 [18]: 3.17 µM
- TGI [18]: 11.2 µM
- GI50 [19]: 2.84 µM
- TGI [19]: 12.2 µM
- GI50 [20]: 3.7 µM
- TGI [20]: 13.2 µM
- GI50 [21]: 3 µM
- TGI [21]: 11.1 µM
- GI50 [22]: 2.29 µM
- TGI [22]: 11.3 µM
- GI50 [23]: 2.57 µM
- TGI [23]: 10.2 µM
- GI50 [24]: 3.85 µM
- TGI [24]: 48.8 µM
- GI50 [25]: 3.54 µM
- TGI [25]: 11.5 µM
- GI50 [26]: 3.63 µM
- TGI [26]: 12.9 µM
- GI50 [27]: 1.89 µM
- TGI [27]: 4.3 µM
- GI50 [28]: 3.52 µM
- TGI [28]: 14.6 µM
- GI50 [29]: 2 µM
- TGI [29]: 4.63 µM
- GI50 [30]: 3.06 µM
- TGI [30]: 10.5 µM
- GI50 [31]: 2.28 µM
- TGI [31]: 8.76 µM
- GI50 [32]: 2.85 µM
- TGI [32]: 10.9 µM
- GI50 [33]: 2.41 µM
- TGI [33]: 7.14 µM
- GI50 [34]: 3.56 µM
- TGI [34]: > 100 µM
- GI50 [35]: 2.11 µM
- TGI [35]: 4.79 µM
- GI50 [36]: 1.76 µM
- TGI [36]: 11.3 µM
- GI50 [37]: 3.02 µM
- TGI [37]: 12.1 µM
- GI50 [38]: 3.07 µM
- TGI [38]: 10 µM
- GI50 [39]: 3.56 µM
- TGI [39]: 12.5 µM
- GI50 [1]: 1.58 µM
- TGI [1]: 3.63 µM
- GI50 [40]: 3.11 µM
- TGI [40]: 12 µM
- GI50 [41]: 2.64 µM
- TGI [41]: 7.79 µM
- GI50 [42]: 2.77 µM
- TGI [42]: 8.8 µM
- GI50 [43]: 3.39 µM
- TGI [43]: 12.6 µM
- GI50 [44]: 3.16 µM
- TGI [44]: 13.2 µM
- GI50 [45]: 3.43 µM
- TGI [45]: 14.8 µM
- GI50 [46]: 2.02 µM
- TGI [46]: 7.59 µM
- GI50 [47]: 4.34 µM
- TGI [47]: 23.4 µM
- GI50 [48]: 3.24 µM
- TGI [48]: 10.6 µM
- GI50 [49]: 3.75 µM
- TGI [49]: 18.6 µM
- GI50 [50]: 1.54 µM
- TGI [50]: 3.76 µM
- GI50 [51]: 3.25 µM
- TGI [51]: 11.6 µM
- GI50 [52]: 1.92 µM
- TGI [52]: 5.01 µM
- GI50 [53]: 2.98 µM
- TGI [53]: 9.14 µM
- GI50 [54]: 6.04 µM
- TGI [54]: 26.8 µM
- GI50 [55]: 2.65 µM
- TGI [55]: 8.02 µM
- GI50 [56]: 2.7 µM
- TGI [56]: 11.4 µM
- GI50 [57]: 1.72 µM
- TGI [57]: 3.79 µM

SMILES: C/C=C(\C)C(=O)N[C@H]1C(O)C[C@]2(C)C3CC[C@@]4(C)C(CC[C@@H]4C(C)N(C)C)C3CCC2C1O (stereo partly drawn)
- GI50 [1]: 1.7 µM
- TGI [1]: 4.54 µM

SMILES: COc1ccc(Nc2cc(C)nc(N3CCN(c4ccnc5cc(Cl)ccc45)CC3)n2)cc1
- GI50 [1]: 1.77 µM
- TGI [1]: 5.57 µM

SMILES: CCO/C=N/C1=C(C#N)C(c2ccc(OC)cc2)c2sc3c(C)cccc3c2O1 (stereo not drawn)
- GI50 [1]: 0.276 µM
- TGI [1]: 5.69 µM

SMILES: OCCN1CCN(CC/C=C2\c3ccccc3Sc3ccc(Cl)cc32)CC1
- GI50 [1]: 1.54 µM and 1.82 µM
- TGI [1]: 3.18 µM and 4.05 µM
